The subject of assay [1] is Cyperus spp., Echinochloa spp., Digitaria spp., Sagitaria spp. and Scirpus spp. Kind of assay: Action on harmful plants in rice (paddy rice conditions, visual scoring). In kind it is in vivo, typical rice weeds (gramineous and broad-leaved). Conditions: applied into the dammed water, visual scoring about three weeks after application. The gist of the method: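 Under paddy conditions with 2-3 cm dammed water, transplanted and sown rice plus weeds were treated at three-leaf stage (E. crus-galli at 1.5 leaves). Pots stayed in greenhouse under optimum growth conditions for the test period, with visual assessment of damage.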

Assay [2] relates to Chenopodium spp., Papaver spp., Polygonum spp., Veronica spp. or Viola spp. Kind of assay: Post-emergence effect on weeds (greenhouse pot test, visual scoring). It counts as in vivo, monocotyledonous and dicotyledonous weeds. As to conditions: treated at three-leaf stage; visual scoring after about 3 to 4 weeks; application rate of 0.5 kg and less of active substance per hectare.

`CC#Cc1cccc(CNc2nc(N)nc(C(C)C)n2)c1` [Product P11.1582]: the “herbicidal activity against harmful plants which are typical for rice crops” value (“herbicidal activity … for rice crops” for short) in assay [1] was “very good herbicidal activity”. In addition, the “herbicidal activity post-emergence against harmful plants” value (shortened to “herbicidal activity post-emergence”) in assay [2] is given as “very good herbicidal activity”.
For `C#Cc1c(F)cc(C(C)Nc2nc(N)nc(C(F)CC)n2)cc1F` (centres unmarked) [Product P27.352], the “herbicidal activity … for rice crops” value in assay [1] was “very good herbicidal activity”. Further, the “herbicidal activity post-emergence” value in assay [2] is on record as “very good herbicidal activity”.
Turning to `CC(C)c1nc(N)nc(NCc2cccc(C(F)=C(F)F)c2)n1` [Product P11.1567], the “herbicidal activity … for rice crops” value in assay [1] is recorded as “very good herbicidal activity”. The “herbicidal activity post-emergence” value in assay [2] is reported as “very good herbicidal activity”.
Turning to `CCc1nc(N)nc(NCc2cc(F)c(C(F)=C(F)F)c(F)c2)n1` [Product P6.49], the “herbicidal activity … for rice crops” value in assay [1] was “very good herbicidal activity”. Further, the “herbicidal activity post-emergence” value in assay [2] is “very good herbicidal activity”.
With `C#Cc1ccc(C(C)Nc2nc(N)nc(C(C)F)n2)cc1F` (centres unmarked) [Product P22.1620], in assay [1], the “herbicidal activity … for rice crops” value is “very good herbicidal activity”. For the same compound, the “herbicidal activity post-emergence” value in assay [2] is recorded as “very good herbicidal activity”.
On to `C#Cc1cccc(C(C)Nc2nc(N)nc(C(C)F)n2)c1` (centres unmarked) [Product P22.1579], for which the “herbicidal activity … for rice crops” value in assay [1] is “very good herbicidal activity”. Also, the “herbicidal activity post-emergence” value in assay [2] is “very good herbicidal activity”.
With `CCc1nc(N)nc(NC(C)c2ccc(C3CC3)cc2)n1` (centres unmarked) [Product P7.1604], the “herbicidal activity … for rice crops” value in assay [1] is on record as “very good herbicidal activity”. The “herbicidal activity post-emergence” value in assay [2] was “very good herbicidal activity”.
Turning to `CC(F)c1nc(N)nc(NC(C)c2cccc(C(F)=C(F)F)c2)n1` (centres unmarked) [Product P22.1567], the “herbicidal activity … for rice crops” value in assay [1] is reported as “very good herbicidal activity”. Also, in assay [2], the “herbicidal activity post-emergence” value is “very good herbicidal activity”.
Consider `C#Cc1cc(C#C)cc(C(C)Nc2nc(N)nc(C(C)F)n2)c1` (centres unmarked) [Product P22.369], for which, in assay [1], the “herbicidal activity … for rice crops” value is listed as “very good herbicidal activity”. Also, the “herbicidal activity post-emergence” value in assay [2] was “very good herbicidal activity”.
With `C#Cc1ccc(C(Nc2nc(N)nc(CC)n2)C2CC2)cc1` (centres unmarked) [Product P9.1580], the “herbicidal activity … for rice crops” value in assay [1] is “very good herbicidal activity”. Further, the “herbicidal activity post-emergence” value in assay [2] was “very good herbicidal activity”.
Regarding `CCC(F)c1nc(N)nc(NC(C)c2cc(F)c(C3CC3)c(F)c2)n1` (centres unmarked) [Product P27.960], the “herbicidal activity … for rice crops” value in assay [1] is listed as “very good herbicidal activity”. For the same compound, in assay [2], the “herbicidal activity post-emergence” value is “very good herbicidal activity”.
Turning to `C#Cc1cccc(CNc2nc(N)nc(CC)n2)c1` [Product P6.1579], the “herbicidal activity … for rice crops” value in assay [1] is listed as “very good herbicidal activity”. In addition, the “herbicidal activity post-emergence” value in assay [2] is listed as “very good herbicidal activity”.
Consider `CC#Cc1c(F)cc(CNc2nc(N)nc(CC)n2)cc1F` [Product P6.428], for which, in assay [1], the “herbicidal activity … for rice crops” value is on record as “very good herbicidal activity”. In addition, the “herbicidal activity post-emergence” value in assay [2] is listed as “very good herbicidal activity”.
Turning to `CC#Cc1cccc(C(C)Nc2nc(N)nc(CC)n2)c1` (centres unmarked) [Product P7.1582], in assay [1], the “herbicidal activity … for rice crops” value is on record as “very good herbicidal activity”. In assay [2], the “herbicidal activity post-emergence” value is on record as “very good herbicidal activity”.
For `C#Cc1cc(CNc2nc(N)nc(CC)n2)ccc1F` [Product P6.309], the “herbicidal activity … for rice crops” value in assay [1] was “very good herbicidal activity”. Also, in assay [2], the “herbicidal activity post-emergence” value is “very good herbicidal activity”.
As for `CC(C)c1nc(N)nc(NCc2cccc(C3CC3)c2)n1` [Product P11.1603], the “herbicidal activity … for rice crops” value in assay [1] is reported as “very good herbicidal activity”. The “herbicidal activity post-emergence” value in assay [2] is listed as “very good herbicidal activity”.
Take `Cc1nc(N)nc(NC(C)c2ccc(F)c(C3CC3)c2)n1` (centres unmarked) [Product P2.916]: in assay [1], the “herbicidal activity … for rice crops” value is recorded as “very good herbicidal activity”. Besides, the “herbicidal activity post-emergence” value in assay [2] is “very good herbicidal activity”.
In the case of `C#Cc1c(F)cc(C(Nc2nc(N)nc(C(C)(C)F)n2)C2CC2)cc1F` (centres unmarked) [Product P19.352], in assay [1], the “herbicidal activity … for rice crops” value is recorded as “very good herbicidal activity”. In assay [2], the “herbicidal activity post-emergence” value is recorded as “very good herbicidal activity”.
As to `CC(F)c1nc(N)nc(NCc2cc(F)c(C(F)=C(F)F)c(F)c2)n1` (centres unmarked) [Product P21.49], the “herbicidal activity … for rice crops” value in assay [1] is “very good herbicidal activity”. Moreover, the “herbicidal activity post-emergence” value in assay [2] is given as “very good herbicidal activity”.
Regarding `C#Cc1cccc(CNc2nc(N)nc(C(C)F)n2)c1` (centres unmarked) [Product P21.1579], in assay [1], the “herbicidal activity … for rice crops” value is on record as “very good herbicidal activity”. For the same compound, the “herbicidal activity post-emergence” value in assay [2] was “very good herbicidal activity”.
`CCCCC#Cc1cc(C(C)Nc2nc(N)nc(C(C)F)n2)ccc1F` (centres unmarked) [Product P22.688]: the “herbicidal activity … for rice crops” value in assay [1] was “very good herbicidal activity”. Besides, the “herbicidal activity post-emergence” value in assay [2] was “very good herbicidal activity”.
Consider `CC(C)(F)c1nc(N)nc(NCc2cccc(C(F)=C(F)F)c2)n1` [Product P16.1567], for which, in assay [1], the “herbicidal activity … for rice crops” value is on record as “very good herbicidal activity”. Moreover, the “herbicidal activity post-emergence” value in assay [2] is reported as “very good herbicidal activity”.
Regarding `CCC(F)c1nc(N)nc(NC(C)c2ccc(F)c(C(F)=C(F)F)c2)n1` (centres unmarked) [Product P27.5], the “herbicidal activity … for rice crops” value in assay [1] is “very good herbicidal activity”. In addition, the “herbicidal activity post-emergence” value in assay [2] is on record as “very good herbicidal activity”.
On to `Cc1nc(N)nc(NC(C)c2ccc(C(F)=C(F)F)cc2)n1` (centres unmarked) [Product P2.1568], for which the “herbicidal activity … for rice crops” value in assay [1] is “very good herbicidal activity”. In addition, the “herbicidal activity post-emergence” value in assay [2] was “very good herbicidal activity”.
Take `C#Cc1ccc(CNc2nc(N)nc(C(C)C)n2)cc1` [Product P11.1580]: the “herbicidal activity … for rice crops” value in assay [1] is listed as “very good herbicidal activity”. In assay [2], the “herbicidal activity post-emergence” value is “very good herbicidal activity”.
Regarding `CC(C)c1nc(N)nc(NCc2ccc(C3CC3)cc2)n1` [Product P11.1604], the “herbicidal activity … for rice crops” value in assay [1] was “very good herbicidal activity”. Besides, the “herbicidal activity post-emergence” value in assay [2] is “very good herbicidal activity”.
For `CCc1nc(N)nc(NCc2cccc(C3CC3)c2)n1` [Product P6.1603], the “herbicidal activity … for rice crops” value in assay [1] is “very good herbicidal activity”. Further, in assay [2], the “herbicidal activity post-emergence” value is “very good herbicidal activity”.
`CC(C)(F)c1nc(N)nc(NC(c2ccc(C(F)=C(F)F)cc2)C2CC2)n1` (centres unmarked) [Product P19.1568]: the “herbicidal activity … for rice crops” value in assay [1] is reported as “very good herbicidal activity”. Besides, the “herbicidal activity post-emergence” value in assay [2] is “very good herbicidal activity”.
